Assay results: patent publication US7326703B2, “(1,10B-Dihydro-2-(aminocarbonyl-phenyl)-5H-pyrazolo[1,5-c][1,3]benzoxazin-5-yl)phenyl methanone derivatives as HIV viral replication inhibitors” (priority 2004, dated 2008)

Tests used:
HIV-1 strain LAI = test: Cellular anti-viral assay in MT4-LTR-EGFP cells, wild type HIV-1 strain LAI; format: cell-based; details: Human immunodeficiency virus 1, 72 h; MT4-LTR-EGFP cells, three days incubation, GFP signal; average EC50 used where more than one run; read-out: Activity class for HIV-1-LAI test
Method: (§1) The compounds were tested in a cellular assay using the MT4-LTR-EGFP cells for anti-viral activity. […] The cellular assay was performed according to the following procedure.
(§2) HIV- or mock-infected MT4-LTR-EGFP cells were incubated for three days in the presence of various concentrations of the inhibitor. Upon infection, the GFP reporter is activated by the viral tat protein. At the end of the incubation period, the GFP signal was measured. In the virus control samples (in the absence of any inhibitor) the maximal fluorescent signal was obtained. The inhibitory activity of the compound was monitored on the virus-infected cells and was expressed as EC50 and EC90. These values represent the amount of the compound required to protect 50% and 90%, respectively, of the cells from virus infection. The toxicity of the compound was measured on the mock-infected cells and was expressed as CC50, which represents the concentration of compound required to inhibit the growth of the cells by 50%. The selectivity index (SI) (ratio CC50/EC50) is an indication of the selectivity of the anti-HIV activity of the inhibitor.

HIV-1-MDR = test: Cellular anti-viral assay in MT4-LTR-EGFP cells, multi-drug resistant HIV-1 virus; format: cell-based; details: Human immunodeficiency virus 1, 72 h, read-out: Activity class for HIV-1-MDR test
Method: as §1, §2

O=C(NC1CCCC1)c1ccc(C2=NN3C(C(=O)c4cccc(Br)c4)Oc4ccccc4C3C2)cc1 (centres unmarked) [Compound 58]
EC50 (HIV-1 strain LAI): < 1 µM
EC50 (HIV-1-MDR): < 1 µM
